Paper PMC3172288, “RLIP76, a Glutathione-Conjugate Transporter, Plays a Major Role in the Pathogenesis of Metabolic Syndrome” (PLoS ONE, 2011)

How the values were obtained:
RLIP76 [1] = target: T1, RLIP76 (Homo sapiens, UniProt Q15311); experiment: inhibition of ATP-dependent 3H-GSHNE uptake into RLIP76 proteoliposomes; type: biochemical; conditions: 10 µM 3H-GSHNE, 0-100 µM drug, 30 min incubation at 37 °C
T1 construct: gene RALBP1; purified recombinant RLIP76 reconstituted in proteoliposomes
T1 sequence (Q15311 2-655): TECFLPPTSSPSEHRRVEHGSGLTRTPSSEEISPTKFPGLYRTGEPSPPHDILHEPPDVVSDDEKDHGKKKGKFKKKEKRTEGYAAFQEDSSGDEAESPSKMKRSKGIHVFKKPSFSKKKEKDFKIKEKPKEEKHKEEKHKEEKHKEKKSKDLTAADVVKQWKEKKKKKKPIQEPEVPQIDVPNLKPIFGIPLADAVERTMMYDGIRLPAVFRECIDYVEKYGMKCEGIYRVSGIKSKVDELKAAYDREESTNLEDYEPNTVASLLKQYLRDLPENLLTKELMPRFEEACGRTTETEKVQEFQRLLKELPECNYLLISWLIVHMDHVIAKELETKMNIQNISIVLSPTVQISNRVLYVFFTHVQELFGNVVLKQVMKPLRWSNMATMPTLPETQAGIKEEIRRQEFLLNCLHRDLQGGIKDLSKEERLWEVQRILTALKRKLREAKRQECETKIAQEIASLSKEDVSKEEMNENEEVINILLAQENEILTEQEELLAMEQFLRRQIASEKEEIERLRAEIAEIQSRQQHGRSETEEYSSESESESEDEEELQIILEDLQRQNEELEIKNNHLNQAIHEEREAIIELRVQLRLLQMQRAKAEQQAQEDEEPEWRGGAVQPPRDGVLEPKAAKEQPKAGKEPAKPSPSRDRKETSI

RLIP76 [2] = target: T1, RLIP76; experiment: ATP-dependent uptake of 3H-GSHNE into RLIP76 proteoliposomes; type: biochemical; conditions: 10 µM, labelled compound, 37 °C

Structure (SMILES)	inhibition of ATP-dependent 3H-GSHNE uptake into RLIP76 proteoliposomes (RLIP76 [1])	ATP-dependent uptake of 3H-GSHNE into RLIP76 proteoliposomes (RLIP76 [2])
CN(C)C(=N)NC(=N)N [metformin]	metformin inhibits only half of the transport activity	–
CCCCCC(O)C(CC=O)SC[C@H](NC(=O)CC[C@H](N)C(=O)O)C(=O)NCC(=O)O (stereo partly drawn) [3H-GSHNE]	–	ATP-dependent uptake of ^3H-GSHNE
CN(CCOc1ccc(CC2SC(=O)NC2=O)cc1)c1ccccn1 (stereo not drawn) [rosiglitazone]	Inhibition of the transport activity of purified recombinant human RLIP76 towards physiological substrate	–
